According to patent US12612412B2, “Antiviral heterocyclic compounds” (Enanta Pharmaceuticals, Inc., priority 2021, dated 2026):

The molecules below were run on genotype A, "Long" strain RSV (assay: RSV-A assay (CPE protection in Hep-2 cells, ATPlite readout)). Details: human respiratory syncytial virus, genotype A “Long” strain RSV, MOI 0.1, CPE protection, read-out: Human RSV-A (“Long”).
Type: cell-based, Human respiratory syncytial virus (HRSV)
How it was run: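 Hep-2 cells (8,000/well) were treated with 2-fold serial compound dilutions in duplicate and infected with RSV at MOI 0.1. After 5 days, protection from cytopathic effect was measured as cell viability by ATPlite luminescence, and EC50 values were derived.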

EC50 | Structure (SMILES)
< 200 nM | C[C@]1(C(N)=O)COc2c1cc([C@@](O)(CNC(=O)c1ccnc3[nH]ccc13)C(F)(F)F)nc2-c1ccc(F)cc1 [Example 369]
< 200 nM | C[C@]1(C(N)=O)COc2c1cc([C@@](O)(CNC(=O)c1cc3cnccc3[nH]1)C(F)(F)F)nc2-c1ccc(F)cc1 [Example 370]
> 200 nM | C[C@]1(C(N)=O)COc2c1cc([C@@](O)(CNC(=O)c1cc3ncccc3s1)C(F)(F)F)nc2-c1ccc(F)cc1 [Example 371]
> 200 nM | C[C@]1(C(N)=O)COc2c1cc([C@@](O)(CNC(=O)c1cc(=O)[nH]c(C3CC3)n1)C(F)(F)F)nc2-c1ccc(F)cc1 [Example 372]
> 200 nM | Cn1cc(C(=O)NC[C@](O)(c2cc3c(c(-c4ccc(F)cc4)n2)OC[C@]3(C)C(N)=O)C(F)(F)F)c2ccccc21 [Example 373]
> 200 nM | C[C@]1(C(N)=O)COc2c1cc([C@@](O)(CNC(=O)c1cnc3nccn3c1)C(F)(F)F)nc2-c1ccc(F)cc1 [Example 374]
> 200 nM | Cc1nc2cc(C(=O)NC[C@](O)(c3cc4c(c(-c5ccc(F)cc5)n3)OC[C@]4(C)C(N)=O)C(F)(F)F)ccc2o1 [Example 375]
> 200 nM | C[C@]1(C(N)=O)COc2c1cc([C@@](O)(CNC(=O)c1csc3ccccc13)C(F)(F)F)nc2-c1ccc(F)cc1 [Example 376]
> 200 nM | C[C@]1(C(N)=O)COc2c1cc([C@@](O)(CNC(=O)c1cc3cccnc3s1)C(F)(F)F)nc2-c1ccc(F)cc1 [Example 377]
> 200 nM | C[C@]1(C(N)=O)COc2c1cc([C@@](O)(CNC(=O)c1cc3ccccc3o1)C(F)(F)F)nc2-c1ccc(F)cc1 [Example 378]
> 200 nM | C[C@]1(C(N)=O)COc2c1cc([C@@](O)(CNC(=O)c1cc3cccc(F)c3s1)C(F)(F)F)nc2-c1ccc(F)cc1 [Example 379]
< 200 nM | C[C@]1(C(N)=O)COc2c1cc([C@@](O)(CNC(=O)c1cnc3[nH]ccc3c1)C(F)(F)F)nc2-c1ccc(F)cc1 [Example 380]
> 200 nM | Cc1cc(C(=O)NC[C@](O)(c2cc3c(c(-c4ccc(F)cc4)n2)OC[C@]3(C)C(N)=O)C(F)(F)F)no1 [Example 381]
> 200 nM | C[C@]1(C(N)=O)COc2c1cc([C@@](O)(CNC(=O)c1cccc3c1OCO3)C(F)(F)F)nc2-c1ccc(F)cc1 [Example 382]
> 200 nM | C[C@]1(C(N)=O)COc2c1cc([C@@](O)(CNC(=O)c1c[nH]c3cccnc13)C(F)(F)F)nc2-c1ccc(F)cc1 [Example 383]
> 200 nM | C[C@]1(C(N)=O)COc2c1cc([C@@](O)(CNC(=O)c1cc3cc[nH]c3cn1)C(F)(F)F)nc2-c1ccc(F)cc1 [Example 384]
> 200 nM | Cc1ccc2cc(C(=O)NC[C@](O)(c3cc4c(c(-c5ccc(F)cc5)n3)OC[C@]4(C)C(N)=O)C(F)(F)F)[nH]c2c1 [Example 385]
> 200 nM | Cc1ccsc1C(=O)NC[C@](O)(c1cc2c(c(-c3ccc(F)cc3)n1)OC[C@]2(C)C(N)=O)C(F)(F)F [Example 386]
> 200 nM | C[C@]1(C(N)=O)COc2c1cc([C@@](O)(CNC(=O)c1cc3[nH]ccc3cc1F)C(F)(F)F)nc2-c1ccc(F)cc1 [Example 387]
> 200 nM | C[C@]1(C(N)=O)COc2c1cc([C@@](O)(CNC(=O)c1nccc3[nH]ccc13)C(F)(F)F)nc2-c1ccc(F)cc1 [Example 388]
> 200 nM | C[C@]1(C(N)=O)COc2c1cc([C@@](O)(CNC(=O)c1cncs1)C(F)(F)F)nc2-c1ccc(F)cc1 [Example 389]

EC50 | Structure (SMILES)
> 200 nM | Cc1cnc(C(=O)NC[C@](O)(c2cc3c(c(-c4ccc(F)cc4)n2)OC[C@]3(C)C(N)=O)C(F)(F)F)cn1 [Example 390]
> 200 nM | C[C@]1(C(N)=O)COc2c1cc([C@@](O)(CNC(=O)c1ccc[nH]1)C(F)(F)F)nc2-c1ccc(F)cc1 [Example 391]
> 200 nM | C[C@]1(C(N)=O)COc2c1cc([C@@](O)(CNC(=O)c1cc3ccccn3n1)C(F)(F)F)nc2-c1ccc(F)cc1 [Example 392]
> 200 nM | C[C@]1(C(N)=O)COc2c1cc([C@@](O)(CNC(=O)c1n[nH]c3ncccc13)C(F)(F)F)nc2-c1ccc(F)cc1 [Example 393]
> 200 nM | COc1ccc2nc(C(=O)NC[C@](O)(c3cc4c(c(-c5ccc(F)cc5)n3)OC[C@]4(C)C(N)=O)C(F)(F)F)sc2c1 [Example 394]
> 200 nM | COc1cccc2[nH]nc(C(=O)NC[C@](O)(c3cc4c(c(-c5ccc(F)cc5)n3)OC[C@]4(C)C(N)=O)C(F)(F)F)c12 [Example 395]
> 200 nM | C[C@]1(C(N)=O)COc2c1cc([C@@](O)(CNC(=O)c1nccs1)C(F)(F)F)nc2-c1ccc(F)cc1 [Example 396]
> 200 nM | C[C@]1(C(N)=O)COc2c1cc([C@@](O)(CNC(=O)c1n[nH]c3ccc(F)cc13)C(F)(F)F)nc2-c1ccc(F)cc1 [Example 397]
> 200 nM | Cc1ccc2nc(C(=O)NC[C@](O)(c3cc4c(c(-c5ccc(F)cc5)n3)OC[C@]4(C)C(N)=O)C(F)(F)F)cn2c1 [Example 398]
> 200 nM | C[C@]1(C(N)=O)COc2c1cc([C@@](O)(CNC(=O)c1ccnc3ccccc13)C(F)(F)F)nc2-c1ccc(F)cc1 [Example 399]
> 200 nM | C[C@]1(C(N)=O)COc2c1cc([C@@](O)(CNC(=O)c1cc3cc[nH]c3cc1F)C(F)(F)F)nc2-c1ccc(F)cc1 [Example 400]
> 200 nM | Cn1c(C(=O)NC[C@](O)(c2cc3c(c(-c4ccc(F)cc4)n2)OC[C@]3(C)C(N)=O)C(F)(F)F)cc2ccccc21 [Example 401]
> 200 nM | C[C@]1(C(N)=O)COc2c1cc([C@@](O)(CNC(=O)c1ccn3ccnc3c1)C(F)(F)F)nc2-c1ccc(F)cc1 [Example 402]
> 200 nM | C[C@]1(C(N)=O)COc2c1cc([C@@](O)(CNC(=O)c1ccc3[nH]ncc3n1)C(F)(F)F)nc2-c1ccc(F)cc1 [Example 403]
> 200 nM | C[C@]1(C(N)=O)COc2c1cc([C@@](O)(CNC(=O)c1ccco1)C(F)(F)F)nc2-c1ccc(F)cc1 [Example 404]
> 200 nM | C[C@]1(C(N)=O)COc2c1cc([C@@](O)(CNC(=O)c1nc3cc(F)ccc3[nH]1)C(F)(F)F)nc2-c1ccc(F)cc1 [Example 405]
> 200 nM | C[C@]1(C(N)=O)COc2c1cc([C@@](O)(CNC(=O)c1ccnnc1)C(F)(F)F)nc2-c1ccc(F)cc1 [Example 406]
> 200 nM | Cn1ccc(C(=O)NC[C@](O)(c2cc3c(c(-c4ccc(F)cc4)n2)OC[C@]3(C)C(N)=O)C(F)(F)F)c1 [Example 407]
> 200 nM | C[C@]1(C(N)=O)COc2c1cc([C@@](O)(CNC(=O)c1ccc(C(F)F)nc1)C(F)(F)F)nc2-c1ccc(F)cc1 [Example 408]
> 200 nM | C[C@]1(C(N)=O)COc2c1cc([C@@](O)(CNC(=O)c1cnc3cccnn13)C(F)(F)F)nc2-c1ccc(F)cc1 [Example 409]
> 200 nM | Cc1cncnc1C(=O)NC[C@](O)(c1cc2c(c(-c3ccc(F)cc3)n1)OC[C@]2(C)C(N)=O)C(F)(F)F [Example 410]

EC50 | Structure (SMILES)
> 200 nM | Cn1ccc(C(=O)NC[C@](O)(c2cc3c(c(-c4ccc(F)cc4)n2)OC[C@]3(C)C(N)=O)C(F)(F)F)n1 [Example 411]
> 200 nM | COc1ncc(F)cc1C(=O)NC[C@](O)(c1cc2c(c(-c3ccc(F)cc3)n1)OC[C@]2(C)C(N)=O)C(F)(F)F [Example 412]
> 200 nM | C[C@]1(C(N)=O)COc2c1cc([C@@](O)(CNC(=O)c1cn3ccccc3n1)C(F)(F)F)nc2-c1ccc(F)cc1 [Example 413]
> 200 nM | C[C@]1(C(N)=O)COc2c1cc([C@@](O)(CNC(=O)c1cc(Cl)cc3[nH]ncc13)C(F)(F)F)nc2-c1ccc(F)cc1 [Example 414]
> 200 nM | C[C@]1(C(N)=O)COc2c1cc([C@@](O)(CNC(=O)c1cccc3[nH]ccc13)C(F)(F)F)nc2-c1ccc(F)cc1 [Example 415]
> 200 nM | Cc1ccnnc1C(=O)NC[C@](O)(c1cc2c(c(-c3ccc(F)cc3)n1)OC[C@]2(C)C(N)=O)C(F)(F)F [Example 416]
> 200 nM | C[C@]1(C(N)=O)COc2c1cc([C@@](O)(CNC(=O)c1ccc3nccn3n1)C(F)(F)F)nc2-c1ccc(F)cc1 [Example 417]
< 200 nM | C[C@]1(C(N)=O)COc2c1cc([C@@](O)(CNC(=O)c1ccc3ccnn3c1)C(F)(F)F)nc2-c1ccc(F)cc1 [Example 418]
> 200 nM | C[C@]1(C(N)=O)COc2c1cc([C@@](O)(CNC(=O)c1sc3ccccc3c1Cl)C(F)(F)F)nc2-c1ccc(F)cc1 [Example 419]
> 200 nM | C[C@]1(C(N)=O)COc2c1cc([C@@](O)(CNC(=O)c1nc3ccccc3[nH]1)C(F)(F)F)nc2-c1ccc(F)cc1 [Example 420]
> 200 nM | C[C@]1(C(N)=O)COc2c1cc([C@@](O)(CNC(=O)c1ccccn1)C(F)(F)F)nc2-c1ccc(F)cc1 [Example 421]
> 200 nM | C[C@]1(C(N)=O)COc2c1cc([C@@](O)(CNC(=O)c1cc3cc(F)ccc3[nH]1)C(F)(F)F)nc2-c1ccc(F)cc1 [Example 422]
> 200 nM | COc1ccc(C(=O)NC[C@](O)(c2cc3c(c(-c4ccc(F)cc4)n2)OC[C@]3(C)C(N)=O)C(F)(F)F)cc1C [Example 423]
> 200 nM | Cn1nc2ccccc2c1C(=O)NC[C@](O)(c1cc2c(c(-c3ccc(F)cc3)n1)OC[C@]2(C)C(N)=O)C(F)(F)F [Example 424]
> 200 nM | Cn1cccc1C(=O)NC[C@](O)(c1cc2c(c(-c3ccc(F)cc3)n1)OC[C@]2(C)C(N)=O)C(F)(F)F [Example 425]
> 200 nM | C[C@]1(C(N)=O)COc2c1cc([C@@](O)(CNC(=O)c1ncc[nH]1)C(F)(F)F)nc2-c1ccc(F)cc1 [Example 426]
> 200 nM | COc1cccc(C(=O)NC[C@](O)(c2cc3c(c(-c4ccc(F)cc4)n2)OC[C@]3(C)C(N)=O)C(F)(F)F)c1F [Example 427]
> 200 nM | COc1ncccc1C(=O)NC[C@](O)(c1cc2c(c(-c3ccc(F)cc3)n1)OC[C@]2(C)C(N)=O)C(F)(F)F [Example 428]
> 200 nM | C[C@]1(C(N)=O)COc2c1cc([C@@](O)(CNC(=O)c1cccc3[nH]cnc13)C(F)(F)F)nc2-c1ccc(F)cc1 [Example 429]
